Results from publication PMC4494750 (Journal of medicinal chemistry, 2011).
Structures can show the parent of a compound that is named as a salt.

How the values were obtained:
[1] = test system: P. yoelii-Kenya; test: In vivo antimalarial efficacy: P. yoelii murine patent infection; parameters: species or system P. yoelii in CF-1 mice; details: for weight loss or toxicity: 5 mg/kg/day by gavage
[2] = test system: P. berghei; details: subcutaneous injection, mice; without cure or at doses resulting in more toxic deaths than cures; ref 7a, 7e, 7b, 16; cited from earlier work
[3] = test system: P. falciparum pansensitive D6; test: In vitro antimalarial activity: P. falciparum growth inhibition; assay type: cell-based; details: Plasmodium falciparum, D6, 72 h, read-out: IC50 (nM) D6
[4] = test system: P. cynomolgi; details: oral treatment, even at toxic doses; ref 7c; cited from earlier work
[5] = 25 mg/kg/day by gavage, parasite-free for 28 days

Molecule	weight loss or toxicity [1]	effect on survival [2]	also measured
CCCCCCCCc1cc(CCC)c(/C=C2\N=C(c3ccc[nH]3)C=C2OC)[nH]1 [Compound 48, 4′-methoxy-5′-(5-octyl-3-propyl-1H-pyrrol-2-ylmethylene)-1H,5′H-[2,2′]bipyrrolyl, hydrochloride]	without any evidence of weight loss or toxicity	–	–
COC1=CC(c2ccc[nH]2)=N/C1=C\c1[nH]ccc1Cc1ccc(Cl)cc1 [Compound 41]	without any evidence of weight loss or toxicity	–	–
CCCCCCCCc1cc(Cc2ccc(Cl)cc2)c(/C=C2\N=C(c3ccc[nH]3)C=C2OC)[nH]1 [Compound 60]	without any evidence of weight loss or toxicity	–	cures in treated group [1, 5]: one cure
CCCCCCCCCCCC1=N/C(=C\c2[nH]c(-c3ccc[nH]3)cc2OC)C=C1 [Compound 2, undecylprodiginine]	–	extend survival	–
CCC1CCCCCCCCC2=N/C(=C\c3[nH]c(-c4ccc[nH]4)cc3OC)C1=C2 (stereo not shown) [Compound 3, metacycloprodiginine]	–	extend survival	parasite clearance ([1]; 100 mg/kg/day by gavage): complete; weight loss ([1]; 100 mg/kg/day by gavage): temporary weight loss; mice cured ([1]; 100 mg/kg/day by gavage, parasite-free for 28 days): three of four; parasitemia ([1]; initial proof-of-principle testing, 25 mg/kg/day by gavage, 54.1% in controls): 0.28%
CCCCCCCc1cc(/C=C2\N=C(c3ccc[nH]3)C=C2OC)[nH]c1C [Compound 76, heptylprodigiosin]	–	extend survival	–
cyclononylprodiginine [Compound 78]	–	extend survival	–
CCCc1cc(CCC2CCCCC2)c(/C=C2\N=C(c3ccc[nH]3)C=C2OC)[nH]1 [Compound 49]	without any evidence of weight loss or toxicity	–	–
CCCc1cc(Cc2ccc(Cl)cc2)c(/C=C2\N=C(c3ccc[nH]3)C=C2OC)[nH]1 [Compound 57]	without any evidence of weight loss or toxicity	–	–
COC1=CC(c2ccc[nH]2)=N/C1=C\c1[nH]c(Cc2ccc(Cl)cc2)cc1Cc1ccc(Cl)cc1 [Compound 66]	without any evidence of weight loss or toxicity	–	weight loss or clinical overt toxicity ([1]; 25 mg/kg/day by gavage): without any evident weight loss or clinical overt toxicity
CCN(CC)CCCC(C)Nc1ccnc2cc(Cl)ccc12 (stereo not shown) [CQ, chloroquine]	–	–	IC50 [3]: 11 nM
CCCCCC1=C/C(=C/c2[nH]c(-c3ccc[nH]3)cc2OC)N=C1C [Compound 1, prodigiosin]	–	extend survival	antimalarial activity [4]: completely ineffective
CCCCCCc1cc(Cc2ccc(Cl)cc2)c(/C=C2\N=C(c3ccc[nH]3)C=C2OC)[nH]1 [Compound 58]	without any evidence of weight loss or toxicity	–	cures in treated group [1, 5]: one cure
CCCC[C@H]1CCCCCCc2[nH]c(/C=C3\N=CC(c4ccc[nH]4)=C3OC)cc21 [Compound 77, butylcycloheptylprodiginine]	–	extend survival	–
